pIC50: −log10 of the molar value.
How the values were obtained:
[1] = system: Human primary T cells; assay: T cell activation: secreted IFN-y; type: cell-based; settings: 48 hours, fold over background normalized to Compound 141A; for IFN-y 1 nM: 1 nM compound; for IFN-y 10 nM: 10 nM compound; for IFN-y 100 nM: 100 nM compound
Method in brief: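 Values are binned ranges (A–D) of fold increase over anti-CD3/CD28 background, normalized to a reference compound, for IFN-γ in supernatants measured by bead array. Pan-T cells from donor PBMC or LeukoPaks were stimulated on anti-CD3-coated wells (10 μg/mL coating) in serum-free medium with compound for 48 h at 37 °C.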

[2] = system: Human primary T cells; assay: T cell activation: secreted IL-2; type: cell-based; settings: 48 hours, fold over background normalized to Compound 141A; for IL-2 1 nM: 1 nM compound; for IL-2 10 nM: 10 nM compound; for IL-2 100 nM: 100 nM compound
Method in brief: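 IL-2 values are fold over anti-CD3/CD28 background, normalized to a reference compound and sorted into ranges. They come from supernatants of human pan-T cells captured on anti-CD3-coated plates and exposed 48 h, 37° C., to duplicate compound dilutions, measured with cytometric beads.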

[3] = system: Human primary T cells; assay: T cell activation: CD69 surface expression by flow cytometry; type: cell-based; settings: fold over anti-CD3 stimulated background normalized to Compound 141A; for CD69 10 nM: 10 nM compound; for CD69 100 nM: 100 nM compound
Method in brief: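 Read-out is flow-cytometric CD69 surface staining, expressed as fold increase over anti-CD3-stimulated background and normalized to Compound 141A. Human pan T cells from PBMC or LeukoPaks were plated on OKT3-coated wells in serum-free XVivo-15. Compound dilutions were added for 48 h at 37° C, 5% CO2.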

[4] = molecular target: Cbl-b (36-427 aa truncated form, N-terminus Avi-tag) (Homo sapiens (Human), UniProt Q13191); assay: Cbl-b binding: TR-FRET displacement of BODIPY-FL probe
Method in brief: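 IC50 from loss of terbium–BODIPY-FL TR-FRET signal as compounds compete off a fluorescent Cbl-b inhibitor probe (1 uM) for 1 h at RT. Protein: N-Avi-tagged human Cbl-b 36-427 on streptavidin-terbium, 20 mM HEPES pH 7.5 buffer.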

Chain of Cbl-b (36-427 aa truncated form, N-terminus Avi-tag) (Q13191 36-427): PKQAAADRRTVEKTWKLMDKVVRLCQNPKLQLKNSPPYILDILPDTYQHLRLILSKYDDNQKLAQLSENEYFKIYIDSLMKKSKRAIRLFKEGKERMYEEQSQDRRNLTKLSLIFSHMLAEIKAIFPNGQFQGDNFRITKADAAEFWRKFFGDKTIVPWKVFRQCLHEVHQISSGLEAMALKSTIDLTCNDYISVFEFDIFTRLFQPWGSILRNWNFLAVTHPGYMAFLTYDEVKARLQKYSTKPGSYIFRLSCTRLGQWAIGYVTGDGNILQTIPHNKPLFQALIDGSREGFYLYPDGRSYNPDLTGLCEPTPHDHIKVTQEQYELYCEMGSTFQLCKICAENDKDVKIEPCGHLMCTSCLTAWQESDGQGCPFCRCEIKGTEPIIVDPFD

| pIC50 [4] | Compound | IFN-y 1 nM [1] | IFN-y 10 nM [1] | IFN-y 100 nM [1] | IL-2 1 nM [2] | IL-2 10 nM [2] | IL-2 100 nM [2] | CD69 10 nM [3] | CD69 100 nM [3] |
| --- | --- | --- | --- | --- | --- | --- | --- | --- | --- |
| 6.00 to 7.00 | C[C@H]1CCCN(Cc2cc3c(c(C(F)(F)F)c2)CN(c2cc(C4(Cc5nncn5C)COC4)cc(SCCC(=O)O)n2)C3=O)C1 [Compound 124, 3-[(4-{3-[(4-methyl-1,2,4-triazol-3-yl)methyl]oxetan-3-yl}-6-(6-{[(3S)-3-methylpiperidin-1-yl]methyl}-1-oxo-4-(trifluoromethyl)-3H-isoindol-2-yl)pyridin-2-yl)sulfanyl]propanoic acid] | C (values between 0.10 and 0.30: range “C”) | C (values between 0.10 and 0.30: range “C”) | C (values between 0.10 and 0.30: range “C”) | C (values between 0.10 and 0.30: range “C”) | C (values between 0.10 and 0.30: range “C”) | C (values between 0.10 and 0.30: range “C”) | C (values between 0.30 and 0.60: range “C”) | C (values between 0.30 and 0.60: range “C”) |
| 7.70 to 8.30 | C=CC(=O)NCCNc1cc(C2(Cc3nncn3C)COC2)cc(N2Cc3c(cc(CN4CCC[C@H](C)C4)cc3C(F)(F)F)C2=O)n1 [Compound 125, (S)-N-(2-((4-(3-((4-methyl-4H-1,2,4-triazol-3-yl)methyl)oxetan-3-yl)-6-(6-((3-methylpiperidin-1-yl)methyl)-1-oxo-4-(trifluoromethyl)isoindolin-2-yl)pyridin-2-yl)amino)ethyl)acrylamide] | C (values between 0.10 and 0.30: range “C”) | C (values between 0.10 and 0.30: range “C”) | B (values between 0.31 and 1.00: range “B;”) | C (values between 0.10 and 0.30: range “C”) | C (values between 0.10 and 0.30: range “C”) | B (values between 0.31 and 0.79: range “B”) | C (values between 0.30 and 0.60: range “C”) | A (values between 0.81 and 1.10: range “A”) |
| 7.70 to 8.30 | C#CCCS(=O)(=O)N1CCN(c2cc(C3(Cc4nncn4C)COC3)cc(N3Cc4c(cc(CN5CCC[C@H](C)C5)cc4C(F)(F)F)C3=O)n2)CC1 [Compound 134, (S)-2-(6-(4-(but-3-yn-1-ylsulfonyl)piperazin-1-yl)-4-(3-((4-methyl-4H-1,2,4-triazol-3-yl)methyl)oxetan-3-yl)pyridin-2-yl)-6-((3-methylpiperidin-1-yl)methyl)-4-(trifluoromethyl)isoindolin-1-one] | B (values between 0.31 and 1.00: range “B;”) | B (values between 0.31 and 1.00: range “B;”) | B (values between 0.31 and 1.00: range “B;”) | C (values between 0.10 and 0.30: range “C”) | B (values between 0.31 and 0.79: range “B”) | B (values between 0.31 and 0.79: range “B”) | B (values between 0.61 and 0.80: range “B;”) | A (values between 0.81 and 1.10: range “A”) |

| Compound | pIC50 [4] | IFN-y 1 nM [1] | IFN-y 10 nM [1] | IFN-y 100 nM [1] | IL-2 1 nM [2] | IL-2 10 nM [2] | IL-2 100 nM [2] | CD69 10 nM [3] | CD69 100 nM [3] |
| --- | --- | --- | --- | --- | --- | --- | --- | --- | --- |
| CCSc1cc(C2(Cc3nncn3C)COC2)cc(N2Cc3c(NC)cc(CN4CCC[C@H](C)C4)cc3C2=O)n1.O=CO [Compound 130, 2-[6-(ethylsulfanyl)-4-{3-[(4-methyl-1,2,4-triazol-3-yl)methyl]oxetan-3-yl}pyridin-2-yl]-4-(methylamino)-6-{[(3S)-3-methylpiperidin-1-yl]methyl}-3H-isoindol-1-one; formic acid] | 7.70 to 8.30 | C (values between 0.10 and 0.30: range “C”) | C (values between 0.10 and 0.30: range “C”) | B (values between 0.31 and 1.00: range “B;”) | C (values between 0.10 and 0.30: range “C”) | C (values between 0.10 and 0.30: range “C”) | B (values between 0.31 and 0.79: range “B”) | C (values between 0.30 and 0.60: range “C”) | B (values between 0.61 and 0.80: range “B;”) |
| CCC(CC#N)Nc1cc(C2(Cc3nncn3C)COC2)cc(N2Cc3c(cc(CN4CCC[C@H](C)C4)cc3C(F)(F)F)C2=O)n1.O=C(O)C(F)(F)F (stereo partly drawn) [Compound 135, 3-((4-(3-((4-methyl-4H-1,2,4-triazol-3-yl)methyl)oxetan-3-yl)-6-(6-(((S)-3-methylpiperidin-1-yl)methyl)-1-oxo-4-(trifluoromethyl)isoindolin-2-yl)pyridin-2-yl)amino)pentanenitrile; trifluoroacetic acid] | 7.70 to 8.30 | C (values between 0.10 and 0.30: range “C”) | B (values between 0.31 and 1.00: range “B;”) | B (values between 0.31 and 1.00: range “B;”) | C (values between 0.10 and 0.30: range “C”) | B (values between 0.31 and 0.79: range “B”) | B (values between 0.31 and 0.79: range “B”) | B (values between 0.61 and 0.80: range “B;”) | A (values between 0.81 and 1.10: range “A”) |

— patent publication US20250304563A1, “ACTIVATORS OF EFFECTOR T CELLS” (Orum Therapeutics, Inc., priority 2022, published 2025)
